Data from ChEMBL document CHEMBL4680243, “N-benzyl 4,4-disubstituted piperidines as a potent class of influenza H1N1 virus inhibitors showing a novel mechanism of hemagglutinin fusion peptide interaction” (Eur J Med Chem, 2020).
pEC50: −log10 of the molar value.

Experiments:
[1] = tested on: Influenza A virus; experiment: Antiviral activity against Influenza A virus (A/PR 8/34 (H1N1)) infected in MDCK cells assessed as reduction in virus-induced cytopathic effect measured after 72 hrs by microscopic analysis; type: functional, organism-based; conditions: A/Puerto Rico/8/1934(H1N1)
[2] = tested on: Influenza A virus; experiment: Antiviral activity against Influenza A virus (A/PR 8/34 (H1N1)) infected in MDCK cells assessed as reduction in virus-induced cytopathic effect measured after 72 hrs by MTS assay; type: functional, organism-based; conditions: A/Puerto Rico/8/1934(H1N1)
[3] = Cytotoxicity against MDCK cells assessed as change in cell morphology measured after 72 hrs by microscopic analysis; type: cell-based, Canis lupus familiaris; conditions: dog
[4] = Cytotoxicity against MDCK cells assessed as reduction in cell viability measured after 72 hrs by MTS assay; type: cell-based, Canis lupus familiaris; conditions: dog
[5] = Selectivity index, ratio of CC50 for MDCK cells to EC50 for antiviral activity against Influenza A virus (A/Puerto Rico/8/1934(H1N1)) infected in MDCK cells; type: toxicity, cell-based; conditions: dog, read-out: Ratio CC50/EC50

Question: Which results are given for `C[C@H](NC(=O)OC(C)(C)C)C(=O)N(Cc1ccc(F)cc1)C1(C(=O)NCc2ccccc2)CCN(Cc2ccccc2)CC1`?
Answer: pEC50 [1]: 5.00; pEC50 [2]: 4.96; MCC at 72 h [3]: > 100 µM; CC50 at 72 h [4]: > 100 µM

Question: Which results are given for `COC(=O)C[C@H](NC(=O)OC(C)(C)C)C(=O)N(Cc1ccc(F)cc1)C1(C(=O)NCc2ccccc2)CCN(C2CCCCC2)CC1`?
Answer: pEC50 [1]: < 4.00; pEC50 [2]: < 4.00; MCC at 72 h [3]: 73 µM; CC50 at 72 h [4]: 42 µM

Question: With `COC(=O)C[C@H](NC(=O)OC(C)(C)C)C(=O)N(Cc1ccc(F)cc1)C1(C(=O)NCc2ccccc2)CCN(CCc2ccccc2)CC1` as the compound, how does the pEC50 [1] read?
Answer: Its pEC50 is < 4.00.

Question: What about the pEC50 [2] of the same compound?
Answer: Its pEC50 is < 4.00.

Question: And the MCC at 72 h [3]?
Answer: Its MCC at 72 h is 100 µM.

Question: What about the CC50 at 72 h [4] of the same compound?
Answer: The CC50 at 72 h was 41 µM.

Question: With `COC(=O)CC[C@H](NC(=O)OC(C)(C)C)C(=O)N(Cc1ccc(F)cc1)C1(C(=O)NCc2ccccc2)CCN(Cc2ccccc2)CC1` as the compound, how does the pEC50 [1] read?
Answer: Its pEC50 is 5.01.

Question: And the pEC50 [2]?
Answer: The pEC50 was 5.00.

Question: What about the MCC at 72 h [3] of the same compound?
Answer: Its MCC at 72 h is > 100 µM.

Question: What about the CC50 at 72 h [4] of the same compound?
Answer: Its CC50 at 72 h is > 100 µM.

Question: What about the selectivity ratio [5] of the same compound?
Answer: Its selectivity ratio is ≤ 10.

Question: Which results are given for `CC[C@H](C)[C@H](NC(=O)OCc1ccccc1)C(=O)N(C1CC1)C1(C(=O)NCc2ccccc2)CCN(Cc2ccccc2)CC1`?
Answer: pEC50 [1]: 5.29; pEC50 [2]: 5.05; MCC at 72 h [3]: > 100 µM; CC50 at 72 h [4]: > 100 µM; selectivity ratio [5]: 8

Question: What does the source list for `CC(C)(C)OC(=O)N[C@@H](CC(N)=O)C(=O)N(Cc1ccccc1)C1(C(=O)NCc2ccccc2)CCN(Cc2ccccc2)CC1`?
Answer: pEC50 [1]: 5.20; pEC50 [2]: 5.17; MCC at 72 h [3]: > 100 µM; CC50 at 72 h [4]: > 100 µM; selectivity ratio [5]: ≤ 10

Question: With `COC(=O)C[C@H](NC(=O)OC(C)(C)C)C(=O)N(Cc1ccc(C)cc1)C1(C(=O)NCc2ccccc2)CCN(Cc2ccccc2)CC1` as the compound, how does the pEC50 [1] read?
Answer: The pEC50 was 5.16.

Question: And the pEC50 [2]?
Answer: The pEC50 was < 4.00.

Question: What about the MCC at 72 h [3] of the same compound?
Answer: Its MCC at 72 h is > 100 µM.

Question: What about the CC50 at 72 h [4] of the same compound?
Answer: Its CC50 at 72 h is > 100 µM.

Question: With `COC(=O)C[C@H](NC(=O)OC(C)(C)C)C(=O)N(Cc1ccc(Cl)cc1)C1(C(=O)NCc2ccccc2)CCN(Cc2ccccc2)CC1` as the compound, how does the pEC50 [1] read?
Answer: Its pEC50 is 5.80.

Question: What about the pEC50 [2] of the same compound?
Answer: Its pEC50 is 5.80.

Question: And the MCC at 72 h [3]?
Answer: Its MCC at 72 h is 100 µM.

Question: And the CC50 at 72 h [4]?
Answer: Its CC50 at 72 h is 63 µM.

Question: What about the selectivity ratio [5] of the same compound?
Answer: The selectivity ratio was ≤ 10.

Question: With `COC(=O)C[C@H](NC(=O)OC(C)(C)C)C(=O)N(Cc1ccc(F)cc1)C1(C(=O)NCc2ccccc2)CCN(C)CC1` as the compound, how does the pEC50 [1] read?
Answer: Its pEC50 is 4.44.

Question: What about the pEC50 [2] of the same compound?
Answer: Its pEC50 is 4.44.

Question: What about the MCC at 72 h [3] of the same compound?
Answer: Its MCC at 72 h is 17 µM.

Question: And the CC50 at 72 h [4]?
Answer: The CC50 at 72 h was 9.5 µM.

Question: Which results are given for `COC(=O)C[C@H](NC(=O)OC(C)(C)C)C(=O)N(Cc1ccc(F)cc1)C1(C(=O)NCc2ccccc2)CCN(Cc2cc(F)cc(F)c2)CC1`?
Answer: pEC50 [1]: < 4.00; pEC50 [2]: < 4.00; MCC at 72 h [3]: 100 µM; CC50 at 72 h [4]: 84 µM

Question: With `COC(=O)C[C@H](NC(=O)OC(C)(C)C)C(=O)N(Cc1ccc(F)cc1)C1(C(=O)NCS(=O)(=O)c2ccc(C)cc2)CCN(Cc2ccccc2)CC1` as the compound, how does the pEC50 [1] read?
Answer: The pEC50 was < 4.00.

Question: And the pEC50 [2]?
Answer: The pEC50 was < 4.00.

Question: And the MCC at 72 h [3]?
Answer: Its MCC at 72 h is 4 µM.

Question: And the CC50 at 72 h [4]?
Answer: The CC50 at 72 h was 6.4 µM.

Question: With `COC(=O)C[C@H](NC(=O)OCc1ccccc1)C(=O)N(Cc1ccc(F)cc1)C1(C(=O)NCc2ccccc2)CCN(Cc2ccccc2)CC1` as the compound, how does the pEC50 [1] read?
Answer: The pEC50 was 5.57.

Question: And the pEC50 [2]?
Answer: The pEC50 was < 4.00.

Question: What about the MCC at 72 h [3] of the same compound?
Answer: Its MCC at 72 h is 2.6 µM.

Question: What about the CC50 at 72 h [4] of the same compound?
Answer: Its CC50 at 72 h is 1.9 µM.

Question: What does the source list for `COC(=O)C[C@H](NC(=O)OC(C)(C)C)C(=O)N(C1CC1)C1(C(=O)NCc2ccccc2)CCN(Cc2ccccc2)CC1`?
Answer: pEC50 [1]: < 4.00; pEC50 [2]: < 4.00; MCC at 72 h [3]: 84 µM; CC50 at 72 h [4]: 56 µM

Question: With `COC(=O)C[C@H](NC(=O)OC(C)(C)C)C(=O)N(Cc1ccc([N+](=O)[O-])cc1)C1(C(=O)NCc2ccccc2)CCN(Cc2ccccc2)CC1` as the compound, how does the pEC50 [1] read?
Answer: The pEC50 was 5.00.

Question: What about the pEC50 [2] of the same compound?
Answer: The pEC50 was < 4.00.

Question: And the MCC at 72 h [3]?
Answer: The MCC at 72 h was 20 µM.

Question: And the CC50 at 72 h [4]?
Answer: Its CC50 at 72 h is > 100 µM.

Question: With `CC[C@H](C)[C@H](NC(=O)OC(C)(C)C)C(=O)N(Cc1ccccc1)C1(C(=O)NCc2ccccc2)CCN(Cc2ccccc2)CC1` as the compound, how does the pEC50 [1] read?
Answer: Its pEC50 is < 4.00.

Question: What about the pEC50 [2] of the same compound?
Answer: Its pEC50 is < 4.00.

Question: And the MCC at 72 h [3]?
Answer: Its MCC at 72 h is > 100 µM.

Question: And the CC50 at 72 h [4]?
Answer: The CC50 at 72 h was > 100 µM.

Question: What does the source list for `CC[C@H](C)[C@H](NC(=O)OCc1ccccc1)C(=O)N(C1CC1)C1(C(=O)NC(C)(C)C)CCN(Cc2ccccc2)CC1`?
Answer: pEC50 [1]: 5.37; pEC50 [2]: 5.41; MCC at 72 h [3]: 100 µM; CC50 at 72 h [4]: 59 µM; selectivity ratio [5]: 13

Question: With `COC(=O)C[C@H](N)C(=O)N(Cc1ccc(F)cc1)C1(C(=O)NCc2ccccc2)CCN(Cc2ccccc2)CC1` as the compound, how does the pEC50 [1] read?
Answer: The pEC50 was > 6.10.

Question: What about the pEC50 [2] of the same compound?
Answer: Its pEC50 is > 6.10.

Question: And the MCC at 72 h [3]?
Answer: Its MCC at 72 h is 60 µM.

Question: And the CC50 at 72 h [4]?
Answer: Its CC50 at 72 h is 54 µM.

Question: With `COC(=O)C[C@H](NC(=O)OC(C)(C)C)C(=O)N(C)C1(C(=O)NCc2ccccc2)CCN(Cc2ccccc2)CC1` as the compound, how does the pEC50 [1] read?
Answer: The pEC50 was 4.85.

Question: And the pEC50 [2]?
Answer: Its pEC50 is < 4.00.

Question: What about the MCC at 72 h [3] of the same compound?
Answer: The MCC at 72 h was 20 µM.

Question: And the CC50 at 72 h [4]?
Answer: The CC50 at 72 h was 25 µM.
